Like-named read-outs stand apart in the source and are kept apart here.
Tests used:
[1] = biological target: T1, cruzain (Trypanosoma cruzi, UniProt P25779); assay: Aggregation counter-assays: cruzain inhibition at varying Triton X-100 and after pre-incubation with BSA; type: biochemical; design: Cruzain is the truncated, recombinant-expressed cruzipain 1; Brian Shoichet (University of California San Francisco); details: compound µM: MMV687246 12.5, MMV687812 3.125, MMV688179 1.563, MMV688362 3.125, MMV688466 6.25, MMV690028 25
T1 sequence (P25779 123-337 limits assumed): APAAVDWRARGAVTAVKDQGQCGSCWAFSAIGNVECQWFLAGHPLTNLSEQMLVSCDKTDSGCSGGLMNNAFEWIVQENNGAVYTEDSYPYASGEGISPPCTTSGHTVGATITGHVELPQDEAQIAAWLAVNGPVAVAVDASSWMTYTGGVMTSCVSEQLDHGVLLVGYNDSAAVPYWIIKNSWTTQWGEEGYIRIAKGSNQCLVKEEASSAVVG
Procedure: To assess the effects of the Triton X-100 concentration on cruzain inhibition, assays were performed using 0.001%, 0.01%, and 0.1% Triton X-100. To evaluate the impact of pre-incubation with bovine serum albumin (BSA), 50 µL of a solution of the compound in the assay buffer containing 0.001% of Triton X-100 was incubated with 4 mg/mL of BSA (Sigma-Aldrich) for 10′ in a 96-well plate. Next, 50 µL of a solution containing circa 2 nM of cruzain in the same buffer was added to each well and incubated for another 10′. Finally, 100 µL of a solution of 5 µM Z-FR-AMC in the same buffer was added to each well and the fluorescence was immediately read. The final compound concentration varies and was selected to be near the compound IC50.
To investigate if inhibition was due to colloidal aggregation, a common cause of unspecific enzyme inhibition in in vitro assays, we employed two well-established experiments: the comparison of percentages of inhibition at varying Triton X-100 concentrations and the effect of compound pre-incubation with BSA on the percentage of inhibition. […] Pre-incubating a compound that aggregates with BSA saturates the protein-binding capacity of the aggregate.

[2] = biological target: T1, cruzain; assay: biochemical; details: for Cruzain 0’ Inhibition: 0’ (pre-incubation time); for Cruzain 0’ Inhibition / Cruzain 10’ Inhibition: sheet "Screening results"; for Cruzain 10’ Inhibition: 10’ (pre-incubation time); for Cruzain Inhibition 0’: 0’ (no pre-incubation); for Cruzain Inhibition 0’ / Cruzain Inhibition 10’: sheet Screening results; for Cruzain Inhibition 10’: 10’ (pre-incubation)
Summary of the method: (§1)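 Recombinant enzymes assayed by Z-Phe-Arg-AMC cleavage at 25 °C, fluorescence 340/440 nm over 5–7 min, with 10 min or no enzyme–compound preincubation.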

[3] = biological target: T2, TbrCatL (Trypanosoma brucei rhodesiense, UniProt Q95PM0); assay: TbrCatL enzymatic inhibition assay (cleavage of fluorogenic substrate Z-FR-AMC); type: biochemical; details: for TbrCatL 0’ Inhibition: 0’ (pre-incubation time); for TbrCatL 0’ Inhibition / TbrCatL 10’ Inhibition: sheet "Screening results"; for TbrCatL 10’ Inhibition: 10’ (pre-incubation time); for TbrCatL Inhibition 0’: 0’ (no pre-incubation); for TbrCatL Inhibition 0’ / TbrCatL Inhibition 10’: sheet Screening results; for TbrCatL Inhibition 10’: 10’ (pre-incubation)
T2 construct: Conor Caffrey (University of California San Diego)
T2 sequence (Q95PM0 entry or part of it): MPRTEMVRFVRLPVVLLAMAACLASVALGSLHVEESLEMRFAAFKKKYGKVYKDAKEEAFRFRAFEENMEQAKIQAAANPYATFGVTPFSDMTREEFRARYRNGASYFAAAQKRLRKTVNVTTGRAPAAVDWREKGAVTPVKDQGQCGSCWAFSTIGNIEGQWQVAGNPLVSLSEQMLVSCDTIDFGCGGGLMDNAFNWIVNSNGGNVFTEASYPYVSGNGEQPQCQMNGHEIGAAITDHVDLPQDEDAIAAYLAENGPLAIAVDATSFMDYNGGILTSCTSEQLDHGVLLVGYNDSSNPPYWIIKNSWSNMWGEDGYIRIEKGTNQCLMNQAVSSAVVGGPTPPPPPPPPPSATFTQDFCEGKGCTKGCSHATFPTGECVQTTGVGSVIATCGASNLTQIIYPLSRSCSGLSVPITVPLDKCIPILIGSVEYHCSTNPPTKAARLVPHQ
Summary of the method: as §1

Row | SMILES | Cruzain 0’ Inhibition [2] [%] | Cruzain 10’ Inhibition [2] [%] | TbrCatL 0’ Inhibition [3] [%] | TbrCatL 10’ Inhibition [3] [%] | further results
1 | Cn1ccnc1CNCCS(=O)(=O)c1cccc(Nc2ccc(-c3cccc(F)c3)cn2)c1 [MMV688466] |  |  |  |  | % Cruzain Inhibition (Mean ± SEM) 0.001% Triton + BSA 1 mg/mL ([1]; 0.001% Triton + BSA 1 mg/mL): 96 ± 3%; % Cruzain Inhibition (Mean ± SEM) 0.001% Triton X-100 ([1]; 0.001% Triton X-100): 83 ± 3%; % Cruzain Inhibition (Mean ± SEM) 0.01% Triton X-100 ([1]; 0.01% Triton X-100): 32 ± 5%; % Cruzain Inhibition (Mean ± SEM) 0.1% Triton X-100 ([1]; 0.1% Triton X-100): 82 ± 11%; IC50 ([2]; IC50 (µM ± SEM %) Cruzain 0′, no pre-incubation): 9 ± 1 µM; IC50 ([2]; IC50 (µM ± SEM %) Cruzain 10′ inc, 10′ pre-incubation): 25 ± 6 µM; inhibition at 5 µM ([2]; read-out: Inhibition at 5 µM (Mean ± SEM %) Cruzain 0′, 5 µM, no pre-incubation, initial screening): 41 ± 2%; inhibition at 5 µM ([2]; read-out: Inhibition at 5 µM (Mean ± SEM %) Cruzain 10′ inc, 5 µM, 10′ pre-incubation, initial screening): 49 ± 5%; inhibition at 100 µM ([2]; read-out: Inhibition at 100 µM (Mean ± SEM %) Cruzain 0′, 100 µM, no pre-incubation, solid samples): 58 ± 27%; inhibition at 100 µM ([2]; read-out: Inhibition at 100 µM (Mean ± SEM %) Cruzain 10′ inc, 100 µM, 10′ pre-incubation, solid samples): 98 ± 1%; inhibition at 5 µM ([2]; read-out: Inhibition of cruzain or TbrCatL (either enzyme) in the initial screening, 5 µM, either cruzain or TbrCatL, with or without pre-incubation): ≥ 40%; IC50 ([3]; IC50 (µM ± SEM %) TbrCatL 0′, no pre-incubation): 4 ± 1 µM; IC50 ([3]; IC50 (µM ± SEM %) TbrCatL 10′ inc, 10′ pre-incubation): 11 ± 4 µM; inhibition at 5 µM ([3]; read-out: Inhibition at 5 µM (Mean ± SEM %) TbrCatL 0′): 29 ± 2%; inhibition at 5 µM ([3]; read-out: Inhibition at 5 µM (Mean ± SEM %) TbrCatL 10′ inc): 54 ± 8%; inhibition at 100 µM ([3]; read-out: Inhibition at 100 µM (Mean ± SEM %) TbrCatL 0′): 96 ± 3%; inhibition at 100 µM ([3]; read-out: Inhibition at 100 µM (Mean ± SEM %) TbrCatL 10′ inc): 100%
2 | CC(C)NCC(=O)Nc1cccc(C(=O)Nc2cccc(C(F)(F)F)c2)c1 [MMV020165] | -1.7 | 12 | 1.8 | 5 | 
3 | O=C(Nc1ccc(N2CCNCC2)nc1)c1oc(-c2ccccc2)nc1C(F)(F)F [MMV024937] | 5.6 | 14 | 20 | 23 | 
4 | O=C(Nc1cccc(-c2ccc(NCCCN3CCCC3)nc2)c1)c1ccccc1 [MMV023953] | 8 | 11 | 12 | 7 | 
5 | Clc1cccc(CO[C@H]2CCc3ccccc3[C@@H]2n2ccnn2)c1 [MMV676159] | -3 | -1.8 | -13 | -6 | 
6 | Nc1nc(N)c2c3c(sc2n1)CN(Cc1ccccc1)CC3 [MMV688345] | 3.6 | 16 | -1 | 23 | 
7 | COc1ccc(OC(C)C(=O)Nc2ccc(Cl)cc2C)cc1 (centres unmarked) [MMV202458] |  |  |  |  | Cruzain Inhibition 0’ [2]: -14%; Cruzain Inhibition 10’ [2]: -11%; TbrCatL Inhibition 0’ [3]: -16%; TbrCatL Inhibition 10’ [3]: -19%
8 | COC(=O)c1ccc(F)cc1NS(=O)(=O)c1cccc(-c2cnn(Cc3ccccc3)c2)c1 [MMV688350] |  |  |  |  | Cruzain Inhibition 0’ [2]: -7%; Cruzain Inhibition 10’ [2]: -5%; TbrCatL Inhibition 0’ [3]: 2%; TbrCatL Inhibition 10’ [3]: -9%
9 | Cc1ccc(S(=O)(=O)n2cc(-c3ccnc(N)c3)c3cc(Br)cnc32)cc1 [MMV024114] | -9 | 15 | -5 | 1.6 | 
10 | Cc1nn(C)cc1C(C)Nc1nncc(-c2ccc(C(F)(F)F)cc2)n1 (centres unmarked) [MMV019993] | -5 | -1.8 | 0.6 | -3.6 | 
11 | Clc1cccc(C(c2ccc(CN3CCNCC3)cc2)n2ccnc2)c1 (centres unmarked) [MMV663250] | -0.3 | 10 | -13 | -1.1 | 
12 | O=C1COCc2ccc(Br)cc2N1Cc1ccc(C(F)(F)F)cc1 [MMV032995] | -5 | 0.2 | -7 | -7 | 
13 | CCC(Sc1nc2ccccc2o1)C(=O)Nc1nccs1 (centres unmarked) [MMV676383] |  |  |  |  | Cruzain Inhibition 0’ [2]: 3.5%; Cruzain Inhibition 10’ [2]: 4%; TbrCatL Inhibition 0’ [3]: 10%; TbrCatL Inhibition 10’ [3]: 7.5%

Reference: article PMC9967275, “Screening the Pathogen Box to Discover and Characterize New Cruzain and TbrCatL Inhibitors” (Pathogens, 2023)
